PMC5099944, “Design, synthesis and biological evaluation of hybrids of β-carboline and salicylic acid as potential anticancer and apoptosis inducing agents” (Scientific Reports, 2016)

Columns and labels:
EJ cells = test: MTT assay, proliferation of EJ cells; type: cell-based; conditions: 48 h, EJ human bladder carcinoma cells, read-out: In vitro cytotoxicity (IC50) EJ
Method: (§1) The in vitro antitumor activities of the synthesized compounds 7a-l and 8a-l against five human cancer cells were evaluated in MTT assays using 5-fluorouracil (5-FU) and harmine as positive controls. These cells are human hepatocellular carcinoma cells (SMMC-7721 and Hep G2), human colon cancer cell lines (HCT116), human bladder carcinoma cells (EJ), and human lung cancer cells (H460).
(§2) Hepatocellular carcinoma cells (SMMC-7721 and Hep G2), Human colon cancer cell lines (HCT116), human bladder carcinoma cells (EJ) or human lung cancer cells (H460) at 10^4 cells per well were cultured in 10% FBS DMEM in 96-well flat-bottom microplates overnight. The cells were incubated in triplicate with, or without, different concentrations of each test compound for 48 h. During the last 4 h incubation, 30 μL of tetrazolium dye (MTT) solution (5 mg mL^−1) was added to each well. The resulting MTT-formazan crystals were dissolved in 150 μL DMSO, and absorbance was measured spectrophotometrically at 570 nm using an ELISA plate reader. The inhibition induced by each test compound at the indicated concentrations was expressed as a percentage. The concentration required for 50% inhibition (IC50) was calculated using the software (GraphPadPrism Version 4.03).

Hep G2 cells = test: MTT assay, proliferation of Hep G2 cells; type: cell-based; conditions: Homo sapiens, HepG2, 48 h, read-out: In vitro cytotoxicity (IC50) Hep G2
Method: as §1, §2

HCT116 cells = test: MTT assay, proliferation of HCT116 cells; type: cell-based; conditions: Homo sapiens, HCT-116, 48 h, read-out: In vitro cytotoxicity (IC50) HCT116
Method: as §1, §2

SMMC-7721 cells [1] = test: MTT assay, proliferation of SMMC-7721 cells; type: cell-based, human; conditions: Homo sapiens
Method: as §1, §2

[2] = tested on: Bax, Bcl-2, caspase-3, PARP in SMMC-7721 cells; test: Western blot assay of apoptosis-related proteins; type: cell-based, human
Method: Next, to investigate the preliminarily molecular mechanisms underlying the cell apoptosis profiles in 8h-treated cells, we conducted western blot analysis to examine the expression of apoptosis proteins in SMMC-7721 cells. It is well known that Bcl-2 and Bax are anti-apoptotic or pro-apoptotic regulator proteins, respectively, and caspase-3 is the execution factor of apoptosis. In addition, PARP is one of several known cellular substrates for caspase-3 and the cleavage of PARP by caspase-3 is considered to be a hallmark of apoptosis.
Figure 5 Effect of 8h on the expression of apoptosis-related proteins in SMMC-7721 cells. (A) The expression of Bax, Bcl2, caspase 3 and β-actin was examined by western blot analysis. SMMC-7721 cells were incubated with, or without, 8h at the indicated concentrations for 48 h and the levels of protein expression were detected using specific antibodies, and β-actin was used as the control. Data shown are representative images of each protein for three separate experiments. (B) Quantitative analysis: the relative levels of each protein compared to control β-actin were determined by densimetric scanning. Data are expressed as means ± SD from three separate experiments. *P < 0.01 vs control.
The mechanisms of the cell apoptosis were determined by western blot assay. SMMC-7721 cells at 1.5 × 10^5/mL were treated with 3.5, 7.0, or 14 μM 8h or vehicle control for […]. After harvested and lyzed, the cell lysates (50 μg/lane) were separated by SDS-PAGE (12% gel) and transferred onto nitrocellulose membranes. After blocked with 5% fat-free milk, the target proteins were probed with anti-Bcl-2, anti-Bax, anti-caspase-3, anti-PARP, and anti-β-actin antibodies (Cell Signaling, Boston), respectively. The bound antibodies were detected by HRP-conjugated second antibodies and visualized using the enhanced chemiluminescent reagent.

[3] = tested on: human cancer cells (SMMC-7721, Hep G2, HCT116, EJ, H460); test: MTT assay, summary statements across several human cancer cell lines; type: cell-based
Method: as §1, §2

SMMC-7721 cells [4] = test: Mitochondrial membrane potential assay (JC-1); type: cell-based, human; conditions: 14 μM, 48 h (method b112 says 24 h)
Method: The mitochondrial pathway plays an important role in cell apoptosis. To determine whether mitochondria is involved in the apoptosis-inducing effect of 8h, changes in mitochondrial membrane potential were investigated with a fluorescent probe JC-1. JC-1 is a lipophilic cationic dye which facilitates the penetration of mitochondrial membrane due to the decrease of membrane potential, indicated by a fluorescence shift from red to green. The cells were treated with vehicle alone, with different concentrations of 8h (7.0 or 14 μM), or 14 μM 5-FU for 48 h, and then stained with JC-1. […] The percentage of cells emitting green fluorescence reached 57% at the higher dose of 14 μM. The observations indicate that 8h plays a role in the dissipation of mitochondrial membrane potential and the apoptosis effect of 8h is associated with mitochondrial depolarization in cells.
Mitochondrial membrane potential was assessed using a Beyotime (China) kit with JC-1. Briefly, the SMMC-7721 cells in the logarithmic growth phase were treated with 8h (7.0 or 14 μM), 5-FU (14 μM), or vehicle control for 24 h. The cells were harvested, and then labeled with JC-1 in accordance with the manufacturer’s instructions. The samples labeled with JC-1 were analyzed via flow cytometry. For the detection of JC-1, excitation was set at 530 nm, and emissions collected at 585 nm.

LO2 cells = test: MTT assay, proliferation of normal liver LO2 cells; type: cell-based, human
Method: Given the strong growth inhibitory activity of 8h in vitro, it was profiled for antitumor selectivity by examining its inhibitory effects on the growth of SMMC-7721 cells and LO2 cells (human hepatocellular normal cells).
Figure 3 (A) Inhibitory effects of 8h on the proliferation of SMMC-7721 and LO2 cells. Cells were incubated with the indicated concentrations of 8h for 48 h. Cell proliferation was assessed using the MTT assay. Data are means ± SD of the inhibition (%) from three independent experiments. (B) Inhibitory effects of 5h, 8h, and SA or the vehicle control against SMMC-7721 and LO2 cells. SMMC-7721 and LO2 cells were incubated with the indicated compounds at 25 μM for 48 h, and cell proliferation was assessed by the MTT assay. Data are means ± SD of the inhibition (%) from three independent experiments. *P < 0.01 versus control of SMMC-7721, ^#P < 0.01 inhibitory effects of 8h in SMMC-7721 versus LO2 cells.
as §2

[5] = western blot, 3.5, 7.0 or 14 μM

- IC50 ([3]; Homo sapiens, SMMC-7721, Hep G2, HCT116, MTT, read-out: IC50 values for liver and colon cancer cells growth (range over cell lines)): 6.97 to 8.25 µM
- IC50 fold lower than that of 5-FU ([3]; liver and colon cancer cells): 4~6 fold
Compound: Cc1nc(C(=O)NCCCCCNC(=O)c2ccccc2O)cc2c1[nH]c1ccccc12 [8h, N-(5-(2-Hydroxybenzamido)pentyl)-1-methyl-9H-pyrido[3,4-b]indole-3-carboxamide]
- IC50 (EJ cells): 7.89 µM
- IC50 (Hep G2 cells): 7.12 µM
- IC50 (HCT116 cells): 8.25 µM
- IC50 (SMMC-7721 cells [1]; SMMC-7721, 48 h, read-out: In vitro cytotoxicity (IC50) SMMC-7721, MTT assay, 48 h, SMMC-7721 human hepatocellular carcinoma cells): 6.97 µM
- inhibition at 25 µM (SMMC-7721 cells [1]; SMMC-7721, 25 μM, 48 h, MTT assay, read-out: Inhibition of SMMC-7721 cell proliferation): ~90%
- Expression of Bcl-2 [2, 5]: dramatically reduced in a concentration-dependent manner
- Protein levels of Bax [2, 5]: significantly increased
- Cleavage of PARP and caspase-3 ([2]; western blot, vs control group): more significant cleavage of both PARP and caspase-3 than the control group
- Percentage of cells emitting green fluorescence (JC-1) (SMMC-7721 cells [4]): 57%
- Inhibitory effect on LO2 cells (LO2 cells; 25 μM, 48 h, MTT assay): little inhibitory effects
- IC50 (LO2 cells; L02, MTT assay, 48 h, LO2 human hepatocellular normal cells, read-out: IC50 against liver normal LO2 cells): 55.2 µM
- Selectivity: IC50 on SMMC-7721 fold lower than against LO2 cells (LO2 cells; SMMC-7721 vs LO2): 9 fold
- Growth inhibitory activity on non-cancer LO2 cells (LO2 cells; concentrations up to 25 μM, 48 h, MTT): no apparent growth inhibitory activity
